Reference: US8288383B2, “3-methyl-2- ( (2S) -2- (4- (3-methyl-L, 2, 4-oxadiazol-5-YL) phenyl) morpholino) -6- (pyrim-idin-4-yl) pyrimidin-4 (3H) -one as tau protein kinase inhibitor” (Sanofi, priority 2007, dated 2012)
pIC50: −log10 of the molar value. Like-named read-outs stand apart in the source and are kept apart here.

Columns and labels:
CYP2D6 = CYP2D6 (Homo sapiens, UniProt P10635); experiment: Inhibitory activity on CYP2D6 (human recombinant CYPs); type: in vitro ADME; conditions: human recombinant CYP2D6, substrate ethylene glycol ester of luciferin-6'-methyl ether, 37° C., read-out: CYP 2D6 inhibition, IC50 value
Chain of CYP2D6 (P10635 whole entry): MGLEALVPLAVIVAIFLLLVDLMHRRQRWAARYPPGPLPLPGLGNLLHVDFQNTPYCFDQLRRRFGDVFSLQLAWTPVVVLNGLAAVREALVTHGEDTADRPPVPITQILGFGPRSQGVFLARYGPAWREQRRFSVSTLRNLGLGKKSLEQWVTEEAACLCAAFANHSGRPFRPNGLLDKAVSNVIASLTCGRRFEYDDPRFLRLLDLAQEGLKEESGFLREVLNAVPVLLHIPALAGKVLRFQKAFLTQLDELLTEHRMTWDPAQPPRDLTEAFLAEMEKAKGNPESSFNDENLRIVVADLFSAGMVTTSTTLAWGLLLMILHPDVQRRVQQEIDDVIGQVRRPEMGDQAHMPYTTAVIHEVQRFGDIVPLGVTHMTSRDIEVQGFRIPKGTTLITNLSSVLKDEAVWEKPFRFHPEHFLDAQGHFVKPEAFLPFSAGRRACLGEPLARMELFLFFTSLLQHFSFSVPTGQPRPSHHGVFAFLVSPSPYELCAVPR
Description: The purpose of this pharmacokinetic study was to investigate the inhibitory effects of test compounds on the specific metabolic activity of human CYP isozymes using human recombinant CYPs in vitro. […] The specific substrate and positive control is ethylene glycol ester of luciferin-6′-methyl ether and quinidine, respectively. The substrate for the CYP isozyme was incubated with human recombinant CYPs in the presence or absence of the test compounds and the metabolic activity of the CYP isozyme was determined. The reaction mixture was preincubated at 37° C. without NADPH generating system. The reaction was started by the addition of NADPH generating system, and then terminated by the addition of acetonitrile. The activities of the human CYP isozymes were measured by fluorescence signal (CYP2D6) of reaction mixture. IC50 value for each compound was calculated by setting the data of reaction mixture without compound as 100% activity.

tau phosphorylation = experiment: Inhibitory activity on tau phosphorylation in vivo (pS396 Western blot of mouse cortex); conditions: 10 mg/kg p.o., male CD-1 mice, cortex removed after 1 h, pS396 antibody; ** = statistically significant
Description: Test compound was administrated to male CD-1 mice of 5-6 weeks weighing 25-35 g (Charles River Japan, inc.) at 10 mg/kg p.o. (0.5% polyethylen glycol sorbitan monolaurate 80 (Tween80)/water suspension) and after 1 h, mice were decapitated and cortex was promptly removed, followed by being frozen in liquid N2. […] Protein concentrations were determined using DC protein assay kit (BIO-RAD). Supernatants were diluted with sample buffer (62.5 mM Tris-HCl, 25% glycerol, 2% SDS, 0.01% Bromophenol Blue, pH6.8) to adjust the protein concentrations around […] and then boiled for […]. Samples (10 μg) were separated on 10% sodium dodecyl sulfate-polyacrylamide electrophoresis (SDS-PAGE) mini slab gels and transferred onto polyvinylidene difluoride (PVDF) membranes. Membranes were incubated with phosphate buffered saline (PBS) containing 5% non-fat milk for 1h at room temperature and then probed with pS396 anti-body (BIOSOURCE) over night at 4° C. Anti-rabbit IgG horseradish peroxidase (HRP) conjugated anti-body (Promega) was used as secondary anti-body. Membranes were visualized by Enhanced ChemiLuminescence (ECL) kit (Amerasham Bioscience) and detected by LAS1000 (Fuji Photo Film).

[1] = probe ethylene glycol ester of luciferin-6'-methyl ether

Structure (SMILES)	pIC50 (CYP2D6; [1])	melting point	in vivo % phosphorylation against vehicle (tau phosphorylation)	pIC50 (CYP2D6)
Cn1c(N2CCOC(c3noc(-c4ccccc4)n3)C2)nc(-c2ccncn2)cc1=O (centres unmarked) [Compound 2, 1-Methyl-2-[2-(5-phenyl-[1,2,4]oxadiazol-3-yl)-morpholin-4-yl]-1H-[4,4′]bipyrimidinyl-6-one]	< 4.60			
Cn1ccnc1-c1ccc(C2CN(c3nc(-c4ccncn4)cc(=O)n3C)CCO2)cc1 (centres unmarked) [Compound 4, 1-Methyl-2-{2-[4-(1-methyl-1H-imidazol-2-yl)-phenyl]-morpholin-4-yl}-1H-[4,4′]bipyrimidinyl-6-one]	< 4.30	179.8 °C (dec.)		
Cn1c(N2CCOC(c3nc(-c4ccccc4)no3)C2)nc(-c2ccncn2)cc1=O (centres unmarked) [Compound 1, 1-Methyl-2-[2-(3-phenyl-[1,2,4]oxadiazol-5-yl)-morpholin-4-yl]-1H-[4,4′]bipyrimidinyl-6-one]	< 4.30		92.12%	
Cc1noc(-c2ccc([C@H]3CN(c4nc(-c5ccncn5)cc(=O)n4C)CCO3)cc2)n1 [Compound of the present invention, 3-Methyl-2-((2S)-2-(4-(3-methyl-1,2,4-oxadiazol-5-yl)phenyl)morpholino)-6-(pyrimidin-4-yl)pyrimidin-4(3H)-one]		219 °C (dec.)	69.86** %	< 4.30
